Test results reported in patent publication US20100015141A1, “4-PHENOXY-6-ARYL-1H-PYRAZOLO[3,4-D]PYRIMIDINE AND N-ARYL-6-ARYL-1H-PYRAZOLO[3,4-D]PYRIMIDIN-4-AMINE COMPOUNDS, THEIR USE AS MTOR KINASE AND PI3 KINASE INHIBITORS, AND THEIR SYNTHESES” (Wyeth, priority 2008, published 2010).
Where two headings read alike, the source gives them in different places.

Tests used:
human tumor xenografts = settings: cited from earlier work
PI3K-α = PI3K-α (Homo sapiens, UniProt P42336); assay: PI3K-alpha fluorescence polarization assay; assay type: biochemical; settings: 20 μM PIP2, 25 μM ATP
Experimental: (§1) The reaction buffer was 20 mM HEPES pH7.5, 2 mM MgCl2, 0.05% CHAPS, and 0.01% βME (added fresh). The substrate solution was 40 μM PIP2 (diC8, Echelon, Salt Lake City Utah cat #P-4508, 1 mM in water) and 50 μM ATP in the reaction buffer. Nunc 384-well black polypropylene fluorescent plates were used for PI3K assays. The assay is run by putting 9.5 μl of freshly diluted enzyme in the reaction buffer per well, adding 0.5 μl of diluted drug or DMSO, and mixing. Then 10 μl of the substrate solution is added to each well to start the reaction. A final concentration of 20 μM PIP2 and 25 μM ATP in the reaction was used. Reactions were allowed to proceed for 30-60 minutes at room temperature. After 30-60 minutes, 20 μl of a solution of 10 nM TAMRA detector (Red detector probe-Echelon) and 2.5 uM of GST-murineGRP (1.5 mg/ml in 17% glycerol) was added per well to stop the reaction. The resulting solution was mixed well and allowed to stand for 90-110 minutes before reading plate. Assay Plates were read on Perkin-Elmer Envision plate readers with appropriate filters for Tamra [BODIPY-TMRI(1,3,4,5)P4]. Data obtained were used to calculate enzymatic activity and enzyme inhibition by inhibitor compounds. It is important to keep Red probe solutions dark. This procedure is adapted from Echelon Biosciences Inc procedure for their PI3-Kinase fluorescence polarization activity Assay kit Product number K-1100.

PI3K-β = PI3K-β (Homo sapiens, UniProt P42338); assay: PI3K fluorescence polarization assay (PI3K-β); assay type: biochemical
Experimental: as §1

PI3K-γ = PI3K-γ (Homo sapiens, UniProt P48736); assay: PI3K-gamma fluorescence polarization assay; assay type: biochemical; settings: 20 μM PIP2, 25 μM ATP
Experimental: as §1

PI3K-δ = PI3K-δ (Homo sapiens, UniProt O00329); assay: PI3K fluorescence polarization assay (PI3K-δ); assay type: biochemical
Experimental: as §1

mTOR [1] = target: T1, mTOR (Homo sapiens, UniProt P42345); assay: mTOR enzyme assay (DELFIA, His6-S6K phosphorylation); assay type: biochemical; design: FLAG; settings: 100 μM ATP, 1.25 μM His6-S6K
mTOR [2] = target: T1, mTOR; settings: read-out: mTOR IC50; mTOR complexes (PI103) / mTOR enzymes (ZSTK474); cited from earlier work

Chain of PI3K-δ (O00329 whole entry, species assumed): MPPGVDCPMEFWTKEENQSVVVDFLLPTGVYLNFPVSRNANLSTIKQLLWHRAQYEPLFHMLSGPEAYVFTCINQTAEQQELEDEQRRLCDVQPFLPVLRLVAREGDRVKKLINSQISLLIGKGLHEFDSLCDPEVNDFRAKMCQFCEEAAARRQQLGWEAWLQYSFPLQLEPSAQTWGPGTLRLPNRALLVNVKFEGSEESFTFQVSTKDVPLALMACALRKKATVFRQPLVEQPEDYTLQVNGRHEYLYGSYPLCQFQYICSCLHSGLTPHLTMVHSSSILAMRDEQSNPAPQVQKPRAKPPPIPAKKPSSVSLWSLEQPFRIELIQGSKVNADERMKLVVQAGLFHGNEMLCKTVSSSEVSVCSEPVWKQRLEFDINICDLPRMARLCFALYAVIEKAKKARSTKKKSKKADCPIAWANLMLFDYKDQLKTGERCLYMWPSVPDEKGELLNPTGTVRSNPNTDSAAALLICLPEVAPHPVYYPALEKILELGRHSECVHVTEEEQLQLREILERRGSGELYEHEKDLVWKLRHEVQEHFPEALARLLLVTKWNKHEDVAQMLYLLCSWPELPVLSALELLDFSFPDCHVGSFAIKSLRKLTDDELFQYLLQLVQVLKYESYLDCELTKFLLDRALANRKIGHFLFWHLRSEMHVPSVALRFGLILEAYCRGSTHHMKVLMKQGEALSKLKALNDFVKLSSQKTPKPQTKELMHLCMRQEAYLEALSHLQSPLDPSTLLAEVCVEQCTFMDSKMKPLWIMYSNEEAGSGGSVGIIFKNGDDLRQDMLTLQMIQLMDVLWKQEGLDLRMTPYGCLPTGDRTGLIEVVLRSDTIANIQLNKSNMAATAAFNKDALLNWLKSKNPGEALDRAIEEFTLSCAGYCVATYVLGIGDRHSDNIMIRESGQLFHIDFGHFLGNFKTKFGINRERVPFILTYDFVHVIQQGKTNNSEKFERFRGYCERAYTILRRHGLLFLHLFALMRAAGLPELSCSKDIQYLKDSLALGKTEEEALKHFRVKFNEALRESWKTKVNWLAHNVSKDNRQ
Chain of PI3K-δ (P27986 whole entry partner, species assumed): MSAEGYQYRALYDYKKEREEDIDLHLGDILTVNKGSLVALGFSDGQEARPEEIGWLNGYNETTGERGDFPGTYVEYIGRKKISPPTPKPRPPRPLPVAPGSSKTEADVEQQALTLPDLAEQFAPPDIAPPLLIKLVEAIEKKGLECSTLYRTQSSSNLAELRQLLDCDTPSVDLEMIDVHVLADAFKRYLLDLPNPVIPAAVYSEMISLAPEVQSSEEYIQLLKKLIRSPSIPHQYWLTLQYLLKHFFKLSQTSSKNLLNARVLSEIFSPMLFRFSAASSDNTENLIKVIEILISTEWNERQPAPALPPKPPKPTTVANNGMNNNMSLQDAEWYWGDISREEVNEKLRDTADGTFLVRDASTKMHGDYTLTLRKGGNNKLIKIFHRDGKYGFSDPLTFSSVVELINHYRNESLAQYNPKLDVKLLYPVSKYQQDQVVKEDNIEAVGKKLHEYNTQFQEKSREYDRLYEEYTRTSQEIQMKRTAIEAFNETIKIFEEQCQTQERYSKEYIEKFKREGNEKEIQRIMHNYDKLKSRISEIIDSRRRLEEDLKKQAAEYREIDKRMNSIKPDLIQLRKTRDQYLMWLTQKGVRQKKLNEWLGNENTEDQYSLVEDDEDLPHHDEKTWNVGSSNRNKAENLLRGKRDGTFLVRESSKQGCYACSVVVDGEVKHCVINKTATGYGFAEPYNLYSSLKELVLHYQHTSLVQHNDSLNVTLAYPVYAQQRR
Chain of PI3K-β (P42338 whole entry, species assumed): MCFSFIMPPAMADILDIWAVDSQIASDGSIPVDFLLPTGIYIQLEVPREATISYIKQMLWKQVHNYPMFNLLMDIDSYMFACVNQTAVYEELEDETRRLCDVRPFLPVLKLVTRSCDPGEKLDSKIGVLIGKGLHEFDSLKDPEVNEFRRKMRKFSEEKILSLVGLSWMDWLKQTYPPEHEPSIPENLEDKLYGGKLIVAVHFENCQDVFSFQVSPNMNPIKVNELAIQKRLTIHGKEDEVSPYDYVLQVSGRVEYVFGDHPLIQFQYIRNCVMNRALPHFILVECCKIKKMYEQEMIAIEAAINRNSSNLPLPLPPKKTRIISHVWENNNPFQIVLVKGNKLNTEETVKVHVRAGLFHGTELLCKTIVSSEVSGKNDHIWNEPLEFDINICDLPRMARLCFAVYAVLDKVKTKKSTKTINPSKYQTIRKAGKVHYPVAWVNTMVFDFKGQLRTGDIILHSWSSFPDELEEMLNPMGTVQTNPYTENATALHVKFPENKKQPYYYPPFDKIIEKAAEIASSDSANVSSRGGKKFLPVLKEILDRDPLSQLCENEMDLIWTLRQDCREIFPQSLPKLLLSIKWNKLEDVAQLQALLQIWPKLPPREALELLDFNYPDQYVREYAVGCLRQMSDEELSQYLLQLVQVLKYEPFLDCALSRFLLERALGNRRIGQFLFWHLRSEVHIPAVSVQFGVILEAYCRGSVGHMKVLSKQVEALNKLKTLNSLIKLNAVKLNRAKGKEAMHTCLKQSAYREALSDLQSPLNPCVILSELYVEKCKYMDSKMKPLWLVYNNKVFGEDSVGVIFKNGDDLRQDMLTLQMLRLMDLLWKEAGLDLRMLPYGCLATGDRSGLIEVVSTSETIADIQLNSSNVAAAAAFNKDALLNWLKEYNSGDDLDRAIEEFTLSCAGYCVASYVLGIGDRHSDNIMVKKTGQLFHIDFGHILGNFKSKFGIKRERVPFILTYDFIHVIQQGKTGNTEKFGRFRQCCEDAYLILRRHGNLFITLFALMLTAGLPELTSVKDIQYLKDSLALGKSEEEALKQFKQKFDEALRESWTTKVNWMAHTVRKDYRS
Chain of PI3K-β (P27986 whole entry partner, species assumed): as the sequence (P27986 whole entry partner, species assumed) above
Chain of PI3K-α (P42336 whole entry, species assumed): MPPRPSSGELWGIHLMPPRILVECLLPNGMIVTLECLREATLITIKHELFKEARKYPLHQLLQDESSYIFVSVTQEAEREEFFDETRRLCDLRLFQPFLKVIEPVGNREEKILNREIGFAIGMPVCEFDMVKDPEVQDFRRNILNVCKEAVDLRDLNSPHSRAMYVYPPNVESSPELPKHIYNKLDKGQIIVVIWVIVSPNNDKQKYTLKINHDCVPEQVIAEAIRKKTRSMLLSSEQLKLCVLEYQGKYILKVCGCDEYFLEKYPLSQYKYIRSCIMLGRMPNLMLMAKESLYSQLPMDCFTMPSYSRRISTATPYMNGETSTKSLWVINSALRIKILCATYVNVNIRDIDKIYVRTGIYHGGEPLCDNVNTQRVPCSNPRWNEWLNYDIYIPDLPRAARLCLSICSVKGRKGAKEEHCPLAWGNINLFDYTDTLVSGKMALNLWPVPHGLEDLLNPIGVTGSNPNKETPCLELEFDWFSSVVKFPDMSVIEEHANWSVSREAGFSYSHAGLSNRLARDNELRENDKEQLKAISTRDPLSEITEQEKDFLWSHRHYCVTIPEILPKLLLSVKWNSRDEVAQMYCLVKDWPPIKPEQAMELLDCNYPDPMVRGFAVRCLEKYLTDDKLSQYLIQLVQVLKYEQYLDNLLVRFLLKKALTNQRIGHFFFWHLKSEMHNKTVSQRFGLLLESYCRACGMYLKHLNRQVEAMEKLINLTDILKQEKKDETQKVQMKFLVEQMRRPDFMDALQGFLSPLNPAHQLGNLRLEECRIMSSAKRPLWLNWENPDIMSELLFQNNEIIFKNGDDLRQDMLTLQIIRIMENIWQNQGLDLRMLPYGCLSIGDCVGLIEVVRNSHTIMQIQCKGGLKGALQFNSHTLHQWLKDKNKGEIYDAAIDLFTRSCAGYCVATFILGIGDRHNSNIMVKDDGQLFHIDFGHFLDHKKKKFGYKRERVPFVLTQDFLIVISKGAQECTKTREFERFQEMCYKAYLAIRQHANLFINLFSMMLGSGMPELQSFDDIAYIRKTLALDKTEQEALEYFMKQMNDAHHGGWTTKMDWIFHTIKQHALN
Chain of PI3K-α (P27986 whole entry partner, species assumed): as the sequence (P27986 whole entry partner, species assumed) above
Chain of PI3K-γ (P48736 whole entry, species assumed): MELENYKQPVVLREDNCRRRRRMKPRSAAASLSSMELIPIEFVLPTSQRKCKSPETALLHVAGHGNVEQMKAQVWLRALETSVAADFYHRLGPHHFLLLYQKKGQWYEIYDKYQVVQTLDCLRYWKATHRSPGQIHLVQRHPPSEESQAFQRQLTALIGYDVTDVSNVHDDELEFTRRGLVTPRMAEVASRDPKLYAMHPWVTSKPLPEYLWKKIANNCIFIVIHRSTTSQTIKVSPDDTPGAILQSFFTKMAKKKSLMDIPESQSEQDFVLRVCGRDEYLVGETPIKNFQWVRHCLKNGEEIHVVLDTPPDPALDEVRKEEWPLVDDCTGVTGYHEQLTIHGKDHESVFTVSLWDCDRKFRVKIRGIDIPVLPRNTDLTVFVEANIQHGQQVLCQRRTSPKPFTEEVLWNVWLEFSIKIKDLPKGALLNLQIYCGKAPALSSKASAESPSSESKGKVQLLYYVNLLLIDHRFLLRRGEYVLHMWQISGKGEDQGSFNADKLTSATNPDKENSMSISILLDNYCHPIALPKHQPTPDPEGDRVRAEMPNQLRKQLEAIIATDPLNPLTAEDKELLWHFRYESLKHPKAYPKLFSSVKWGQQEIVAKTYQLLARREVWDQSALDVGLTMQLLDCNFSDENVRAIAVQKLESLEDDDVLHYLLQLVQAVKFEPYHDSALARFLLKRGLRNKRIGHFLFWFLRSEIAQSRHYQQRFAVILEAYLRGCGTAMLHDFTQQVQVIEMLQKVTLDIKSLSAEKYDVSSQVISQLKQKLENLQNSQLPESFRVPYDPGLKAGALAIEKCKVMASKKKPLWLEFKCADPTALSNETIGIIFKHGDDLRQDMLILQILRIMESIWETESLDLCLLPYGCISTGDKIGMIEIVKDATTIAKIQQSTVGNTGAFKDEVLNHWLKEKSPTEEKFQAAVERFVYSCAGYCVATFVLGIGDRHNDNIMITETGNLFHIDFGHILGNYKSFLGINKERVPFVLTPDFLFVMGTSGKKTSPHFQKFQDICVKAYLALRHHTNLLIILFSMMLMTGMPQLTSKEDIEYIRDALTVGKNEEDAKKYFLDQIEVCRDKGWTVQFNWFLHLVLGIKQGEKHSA

Row | Structure (SMILES) | IC50 (PI3K-α) | IC50 (PI3K-β) | IC50 (PI3K-γ) | IC50 (PI3K-δ) | IC50 (mTOR [1]) | activity in human tumor xenograft models (human tumor xenografts; I.P. dosing in mice, U87MG, PC3, MDA-MB-468, MDA-MB-435, HCT 116, SKOV3, IGROV-1) | tumor growth in mouse human xenograft cancer models (human tumor xenografts; chronic oral administration, 400 mg/kg, A549, PC-3, WiDr) | IC50 (mTOR [2]) | activity in human tumor xenograft models (human tumor xenografts; prostrate (PC-3) and glioblastoma (U-87))
1 | Oc1cccc(-c2nc(N3CCOCC3)c3oc4ncccc4c3n2)c1 [PI103, 3-(4-(4-morpholinyl)pyrido[3′,2′:4,5]furo[3,2-d]pyrimidin-2-yl)phenol] |  |  |  |  |  | demonstrated activity |  |  | 
2 | COc1cccc(-c2nc(Oc3ccc(NC(C)=O)cc3)c3cnn(C)c3n2)c1 [Example 49, N-(4-{[6-(3-methoxyphenyl)-1-methyl-1H-pyrazolo[3,4-d]pyrimidin-4-yl]oxy}phenyl)acetamide] | 0.258 µM | 1.04 µM | 0.514 µM | 0.134 µM | > 20 µM |  |  |  | 
3 | COc1ccc(Oc2nc(-c3ccc(OC)c(OC)c3)nc3c2cnn3C)cc1OC [Example 46, 4-(3,4-dimethoxyphenoxy)-6-(3,4-dimethoxyphenyl)-1-methyl-1H-pyrazolo[3,4-d]pyrimidine] | 0.23 µM | 0.428 µM | 0.203 µM | 0.094 µM | > 20 µM |  |  |  | 
4 | CC(=O)Nc1ccc(Oc2nc(-c3cccc(O)c3)nc3c2cnn3C)cc1 [Example 50, N-(4-{[6-(3-hydroxyphenyl)-1-methyl-1H-pyrazolo[3,4-d]pyrimidin-4-yl]oxy}phenyl)acetamide] | 0.113 µM | 0.213 µM | 0.114 µM | 0.065 µM | 2.1 µM |  |  |  | 
5 | FC(F)c1nc2ccccc2n1-c1nc(N2CCOCC2)nc(N2CCOCC2)n1 [ZSTK474, 2-(2-difluoromethylbenzoimidazol-1-yl)-4,6-dimorpholino-1,3,5-triazine] |  |  |  |  |  |  | completely inhibited growth | > 10 µM | 
6 | COc1ccc(-c2nc(Oc3ccc4[nH]ccc4c3)c3cnn(C)c3n2)cc1OC [Example 39, 6-(3,4-dimethoxyphenyl)-4-(1H-indol-5-yloxy)-1-methyl-1H-pyrazolo[3,4-d]pyrimidine] | 0.16 µM |  | 0.118 µM |  | 2.8 µM |  |  |  | 
7 | Cn1ncc2c(Nc3ccc(C(N)=O)cc3)nc(-c3ccccc3)nc21 [Example 11, 4-[(1-methyl-6-phenyl-1H-pyrazolo[3,4-d]pyrimidin-4-yl)amino]benzamide] | 0.167 µM |  | 1.58 µM |  | 0.95 µM |  |  |  | 
8 | CN1CCC(NC(=O)Nc2ccc(Nc3nc(Nc4ccc(C(N)=O)cc4)c4cnn(C)c4n3)cc2)CC1 [Example 91, 4-({1-Methyl-6-[(4-{[(1-methylpiperidin-4-yl)carbamoyl]amino}phenyl)amino]-1H-pyrazolo[3,4-d]pyrimidin-4-yl}amino)benzamide] | 0.199 µM |  | 3.17 µM |  | 2 µM |  |  |  | 
9 | CC(=O)Nc1ccc(Oc2nc(-c3ccccc3)nc3c2cnn3C)cc1 [Example 74, N-{4-[(1-methyl-6-phenyl-1H-pyrazolo[3,4-d]pyrimidin-4-yl)oxy]phenyl}acetamide] | 0.637 µM |  | 1.34 µM |  | 5.5 µM |  |  |  | 
10 | Cn1c(=O)n(-c2ccc(C(C)(C)C#N)cc2)c2c3cc(-c4cnc5ccccc5c4)ccc3ncc21 [NVP-BEZ-235, 2-methyl-2-(4-(3-methyl-2-oxo-8-(quinolin-3-yl)-2,3-dihydro-1H-imidazo[4,5-c]quinolin-1-yl)phenyl)propanenitrile] |  |  |  |  |  |  |  |  | demonstrated activity
11 | Cn1ncc2c(Oc3ccc4[nH]ccc4c3)nc(-c3cccc(C#N)c3)nc21 [Example 43, 3-[4-(1H-indol-5-yloxy)-1-methyl-1H-pyrazolo[3,4-d]pyrimidin-6-yl]benzonitrile] | 0.598 µM |  | 1.61 µM |  | 8.4 µM |  |  |  | 
12 | Cn1ncc2c(Nc3ccc(C(N)=O)cc3)nc(-c3ccoc3)nc21 [Example 65, 4-{[6-(3-furyl)-1-methyl-1H-pyrazolo[3,4-d]pyrimidin-4-yl]amino}benzamide] | 0.314 µM |  | 1.71 µM |  | 1.3 µM |  |  |  | 
13 | COc1ccc(Oc2nc(-c3ccccc3)nc3c2cnn3C)cc1OC [Example 73, 4-(3,4-dimethoxyphenoxy)-1-methyl-6-phenyl-1H-pyrazolo[3,4-d]pyrimidine] | 1.76 µM |  | > 9.6 µM |  | 8.2 µM |  |  |  | 
14 | Cn1ncc2c(Nc3ccc(C(N)=O)cc3)nc(-c3ccc(-c4ccccc4)cc3)nc21 [Example 60, 4-[(6-biphenyl-4-yl-1-methyl-1H-pyrazolo[3,4-d]pyrimidin-4-yl)amino]benzamide] | 8.55 µM |  | > 10 µM |  | > 20 µM |  |  |  | 
15 | Cn1ncc2c(Oc3ccc4[nH]ccc4c3)nc(-c3cccc([N+](=O)[O-])c3)nc21 [Example 67, 4-(1H-indol-5-yloxy)-1-methyl-6-(3-nitrophenyl)-1H-pyrazolo[3,4-d]pyrimidine] | 0.66 µM |  | 1.26 µM |  | 16 µM |  |  |  | 

Continued, in another order:

Row | IC50 (PI3K-α) | IC50 (PI3K-β) | IC50 (PI3K-γ) | IC50 (PI3K-δ) | IC50 (mTOR [1]) | Structure (SMILES) | activity in human tumor xenograft models (human tumor xenografts; I.P. dosing in mice, U87MG, PC3, MDA-MB-468, MDA-MB-435, HCT 116, SKOV3, IGROV-1) | tumor growth in mouse human xenograft cancer models (human tumor xenografts; chronic oral administration, 400 mg/kg, A549, PC-3, WiDr) | IC50 (mTOR [2]) | activity in human tumor xenograft models (human tumor xenografts; prostrate (PC-3) and glioblastoma (U-87))
16 | 0.04 µM | 1.62 µM | 0.331 µM | 0.17 µM | 0.3 µM | Cn1ncc2c(Nc3ccc(C(N)=O)cc3)nc(-c3cccc(Cl)c3)nc21 [Example 64, 4-{[6-(3-chlorophenyl)-1-methyl-1H-pyrazolo[3,4-d]pyrimidin-4-yl]amino}benzamide] |  |  |  | 
17 | 0.0004 µM |  | 0.006 µM |  | 0.017 µM | CN1CCN(C(=O)c2ccc(NC(=O)Nc3ccc(Nc4nc(Nc5ccc(C(N)=O)cc5)c5cnn(C)c5n4)cc3)cc2)CC1 [Example 81, 4-{[1-Methyl-6-({4-[({4-[(4-methylpiperazin-1-yl)carbonyl]phenyl}carbamoyl)amino]phenyl}amino)-1H-pyrazolo[3,4-d]pyrimidin-4-yl]amino}benzamide] |  |  |  | 
18 | 0.075 µM | 2.15 µM | 0.416 µM | 0.439 µM | 2.8 µM | Cc1noc(C)c1-c1nc(Nc2ccc(C(N)=O)cc2)c2cnn(C)c2n1 [Example 63, 4-{[6-(3,5-dimethylisoxazol-4-yl)-1-methyl-1H-pyrazolo[3,4-d]pyrimidin-4-yl]amino}benzamide] |  |  |  | 
19 | 0.01 µM |  | 0.143 µM |  | 2.2 µM | CN(C)CCNC(=O)Nc1ccc(Nc2nc(Nc3ccc(C(N)=O)cc3)c3cnn(C)c3n2)cc1 [Example 86, 4-[(6-{[4-({[2-(Dimethylamino)ethyl]carbamoyl}amino)phenyl]amino}-1-methyl-1H-pyrazolo[3,4-d]pyrimidin-4-yl)amino]benzamide] |  |  |  | 
20 | 0.0004 µM |  | 0.011 µM |  | 0.009 µM | CN(CCO)C(=O)c1ccc(NC(=O)Nc2ccc(Nc3nc(Nc4ccc(C(N)=O)cc4)c4cnn(C)c4n3)cc2)cc1 [Example 85, 4-({[4-({4-[(4-Carbamoylphenyl)amino]-1-methyl-1H-pyrazolo[3,4-d]pyrimidin-6-yl}amino)phenyl]carbamoyl}amino)-N-(2-hydroxyethyl)-N-methylbenzamide] |  |  |  | 
21 | 0.0021 µM |  | 0.075 µM |  | 0.012 µM | CN(C)C(=O)c1ccc(Nc2nc(Nc3ccc(NC(=O)Nc4cccnc4)cc3)nc3c2cnn3C)cc1 [Example 93, N,N-Dimethyl-4-{[1-methyl-6-({4-[(pyridin-3-ylcarbamoyl)amino]phenyl}amino)-1H-pyrazolo[3,4-d]pyrimidin-4-yl]amino}benzamide] |  |  |  | 
22 | 0.0003 µM |  | 0.007 µM |  | 0.005 µM | CN(C)C1CCN(C(=O)c2ccc(NC(=O)Nc3ccc(Nc4nc(Nc5ccc(C(N)=O)cc5)c5cnn(C)c5n4)cc3)cc2)C1 (centres unmarked) [Example 83, 4-({6-[(4-{[(4-{[3-(Dimethylamino)pyrrolidin-1-yl]carbonyl}phenyl)carbamoyl]amino}phenyl)amino]-1-methyl-1H-pyrazolo[3,4-d]pyrimidin-4-yl}amino)benzamide] |  |  |  | 
23 | 0.0025 µM |  | 0.075 µM |  | 0.012 µM | CNC(=O)c1ccc(Nc2nc(Nc3ccc(NC(=O)Nc4cccnc4)cc3)nc3c2cnn3C)cc1 [Example 90, N-Methyl-4-{[1-methyl-6-({4-[(pyridin-3-ylcarbamoyl)amino]phenyl}amino)-1H-pyrazolo[3,4-d]pyrimidin-4-yl]amino}benzamide] |  |  |  | 
24 | < 0.0003 µM |  | 0.006 µM |  | 0.009 µM | CN(C)CCN(C)C(=O)c1ccc(NC(=O)Nc2ccc(Nc3nc(Nc4ccc(C(N)=O)cc4)c4cnn(C)c4n3)cc2)cc1 [Example 92, 4-({[4-({4-[(4-Carbamoylphenyl)amino]-1-methyl-1H-pyrazolo[3,4-d]pyrimidin-6-yl}amino)phenyl]carbamoyl}amino)-N-[2-(dimethylamino)ethyl]-N-methylbenzamide] |  |  |  | 
